The values below come from article PMC11700842 (The Journal of Antibiotics, 2024).

The conditions of series [1]: three patients with structural heart disease; cited from earlier work.
For series [2], the system named is M. bovis BCG. It is filed as cell-based. Particulars: analogues 100 µM, verapamil 102 µM, with glucose.
For series [3], the system named is M. smegmatis. The series can be described thus: MIC determination (resazurin) against M. smegmatis. In kind it is cell-based, M. smegmatis mc^2155. Particulars: Mycolicibacterium smegmatis; lowest concentration reducing growth to 1% or less; 21 h + 3 h resazurin; N = 3. (In general: Resazurin is reduced to fluorescent resorufin, in cell work by metabolically active cells.)

Series [4] concerns M. smegmatis. Put plainly: Ethidium bromide efflux assay in M. smegmatis. In kind it is cell-based. As to conditions: analogues 100 µM, verapamil 102 µM, with glucose.
In series [5] the test system is M. bovis BCG. In kind it is cell-based. As to conditions: analogues 100 µM, verapamil 102 µM, with glucose. This is another data set of the same source.
The next series relates to E. faecium E745. Put plainly: microbe, parasite or virus in culture. It is filed as cell-based. Particulars: Enterococcus faecium, E745, 24 h, read-out: MIC99 E. faecium E745.
A further series deals with Streptococcus pneumoniae. Also noted: method as in PMID 36982905. Particulars: cited from earlier work.
In the next series the test system is dopamine transporter. On the set-up: method as in PMID 28274674. As to conditions: human embryonic kidney 293 cells; 20 nM [3H] dopamine over 5 min at 37 °C; read-out: IC50 against the dopamine transporter; cited from earlier work.
Series [6] concerns M. smegmatis. Put plainly: Ethidium bromide accumulation assay in M. smegmatis. It is filed as cell-based. As to conditions: analogues 100 µM, verapamil 102 µM, with glucose.

pIC50: −log10 of the molar value. In brackets after ≈: the same amount, converted by molar mass.

For orientation: pIC50 means −log10 of the IC50, conventionally taken in molar units. As for `Fc1ccc(C(OCCN2CCN(CCCc3ccccc3)CC2)c2ccc(F)cc2)cc1` [vanoxerine, 1-[2-[Bis(4-fluorophenyl)methoxy]ethyl]-4-(3-phenylpropyl)piperazine, reference compound], in series [1], the “adverse cardiac event in phase III clinical trial” value is “caused ventricular pro-arrhythmia”. Moreover, the “% Change in fluorescence (efflux)” value in the series with M. bovis BCG [2] (end of 60 min assay) is on record as “–15 ± 1%”; in the series with M. smegmatis [4] (end of 60 min assay) it was “–11 ± 0.5%”. The “Rate of efflux (ethidium bromide)” value is listed as “–1100 ± 950 RFUs/min” with M. bovis BCG [2] (rate from 0–9 minutes) and “–1100 ± 500 RFUs/min” in the series on M. smegmatis [4] (rate from 0–9 minutes). Also, the MIC99 in the series on M. smegmatis [3] was found to be 50 µM; in the series with E. faecium E745, 44 µM (≈ 19.8 µg/mL). In addition, the figures for the “% Change in fluorescence (accumulation)” value in the series on M. bovis BCG [5] (end of 60 min assay) and with M. smegmatis [6] (end of 60 min assay) were 48 ± 3% and 299 ± 3%, respectively. Further, the “Rate of accumulation (ethidium bromide)” value is 490 ± 800 RFUs/min with M. bovis BCG [5] (rate from 5–14 minutes) and 3000 ± 130 RFUs/min in the series with M. smegmatis [6] (rate from 5–14 minutes). Also, the “activity against Streptococcus pneumoniae (in words)” value in the series with Streptococcus pneumoniae is “inhibited Streptococcus pneumoniae”. Further, the pIC50 in the series on dopamine transporter is […].
